Assay results: publication PMC5725799, “Comparative binding properties of the tau PET tracers THK5117, THK5351, PBB3, and T807 in postmortem Alzheimer brains” (Alzheimer's Research & Therapy, 2017)
Where “and” joins values, the source holds several entries; their conditions need not be identical. Equal values may be shown once.

Key:
tau [1] = assay: ^3H-THK5117 and ^3H-THK5351 autoradiography of large frozen postmortem brain sections, total binding; set-up: species or system human; details: 3 nM tracer
Method: Postmortem frozen left brain hemispheres from three patients with AD were obtained from the Neuropathology of Dementia Laboratory (Indiana University School of Medicine, Indianapolis, IN, USA) and used for the autoradiography experiment. The frozen sections were allowed to reach room temperature, preincubated for 10 minutes with PBS + 0.1% BSA (pH 7.4), and then incubated for 1 h at room temperature with ^3H-THK5351 (3 nM) or ^3H-THK5117 (3 nM). The sections were rinsed three times in cold buffer for 5 minutes, followed by a quick dip in cold distilled water. Nonspecific binding was determined using 10 μM unlabeled THK5351 or 10 μM unlabeled THK5117. […]
For all the autoradiography studies, the regions of interest were drawn manually on the autoradiogram using multigauge software and were used for the semiquantitative analyses. Photostimulated luminescence per square millimeter (PSL/mm^2) was transformed to picomoles per cubic millimeter using a transformation factor that took into account the resolution of the image, the pixel value for the concentration of ligand, and the thickness of the sections: (PSL/mm^2 value)/([pixel value per pmol] × [(resolution/1000)^2] × [cryosection thickness]/1000).

tau [2] = assay: Regional binding distribution of ^3H-THK5117 and ^3H-THK5351 in brain homogenate; set-up: species or system human; details: temporal cortex homogenate, ^3H-THK5117 3 nM vs ^3H-THK5351 1.5 nM, p < 0.0001
Method: (§1) Postmortem brain tissues from three patients with AD and three healthy control subjects were used for the in vitro binding assays. All the brain tissue, which came from the Netherlands Brain Bank, had been homogenized in PBS containing a protease/phosphatase inhibitor (see Table 1).
The regional binding distribution comparison between ^3H-THK5351 and ^3H-THK5117 was carried out in postmortem frontal and temporal cortical and hippocampal tissue from the brains of three patients with AD and three control subjects. The protocol was similar for ^3H-THK5351 (1.5 nM) and ^3H-THK5117 (3 nM): 0.1 mg of tissue in PBS + 0.1% bovine serum albumin (BSA) to a final volume of 500 μl, followed by incubation for 2 h at room temperature. The nonspecific binding was determined using 1 μM unlabeled THK5351 or unlabeled THK5117. After 2-h incubation at room temperature, the competition binding assay was stopped using filtration through glass fiber filters, and the radiation was then quantified using the scintillation counter.

[3] = biological target: T1, monoamine oxidase B (MAO-B) (Homo sapiens, UniProt P27338); assay: Competition binding with ^3H-deprenyl in hippocampus and putamen brain homogenates (off-target binding); details: vs ^3H-deprenyl 10 nM, two AD cases
T1 construct: postmortem brain homogenates from the hippocampus and putamen (0.2 mg/ml tissue) of two patients with AD; tissue Netherlands Brain Bank; host or cells: postmortem human AD hippocampus and putamen homogenate
T1 sequence (P27338 1-520): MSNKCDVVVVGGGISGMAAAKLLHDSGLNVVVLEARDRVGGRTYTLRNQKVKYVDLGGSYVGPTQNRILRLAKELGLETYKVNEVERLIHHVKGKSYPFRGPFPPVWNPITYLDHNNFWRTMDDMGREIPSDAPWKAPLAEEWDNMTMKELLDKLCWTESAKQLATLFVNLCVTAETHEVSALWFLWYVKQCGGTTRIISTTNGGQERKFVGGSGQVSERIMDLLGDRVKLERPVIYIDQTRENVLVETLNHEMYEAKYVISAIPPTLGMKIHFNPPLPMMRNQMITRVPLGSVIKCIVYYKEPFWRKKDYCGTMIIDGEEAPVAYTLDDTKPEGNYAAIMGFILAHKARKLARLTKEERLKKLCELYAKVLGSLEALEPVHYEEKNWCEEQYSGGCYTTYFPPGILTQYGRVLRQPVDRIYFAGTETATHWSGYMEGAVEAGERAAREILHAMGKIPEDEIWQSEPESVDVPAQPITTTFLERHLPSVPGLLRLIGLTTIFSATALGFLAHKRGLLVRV
Method: Competition binding studies using postmortem brain homogenates from the hippocampus and putamen (0.2 mg/ml tissue) of two patients with AD were performed using ^3H-deprenyl (10 nM in Na-K phosphate buffer, pH 7.4) and increasing concentrations of unlabeled THK5117 (10^−14 to 10^−5 M) and T807 (10^−14 to 10^−5 M) to determine the off-target binding of the tau PET tracers. After 2-h incubation at room temperature, the binding assay was terminated by filtration through glass fiber filters presoaked for at least 3 h in 0.3% polyethylenimine. To do so, the filters were rinsed and filtered three times using cold binding buffer, and then the radiation on the filter was quantified using a Beckman Coulter scintillation counter. The data from all the binding studies were analyzed using Prism version 7.0 software.

tau [4] = biological target: tau (Homo sapiens, UniProt P10636); assay: Competition binding assay with ^3H-THK5351 in postmortem hippocampus brain homogenates; details: vs ^3H-THK5351 1.5 nM, AD hippocampus homogenate; read-out: Ki2 (high-affinity site)
Method: as §1
After 2-h incubation at room temperature, the binding assay was terminated by filtration through glass fiber filters presoaked for at least 3 h in 0.3% polyethylenimine. To do so, the filters were rinsed and filtered three times using cold binding buffer, and then the radiation on the filter was quantified using a Beckman Coulter scintillation counter. The data for the regional binding distribution studies were analyzed using Prism version 7.0 software for Mac (GraphPad Software Inc., La Jolla, CA, USA), and two-way analysis of variance with multiple comparisons was performed.

MAO-B = tested on: MAO-B; set-up: method as in PMID 28374768; details: cited from earlier work

tau (Homo sapiens, UniProt P10636), sequence (P10636 623-695 limits assumed): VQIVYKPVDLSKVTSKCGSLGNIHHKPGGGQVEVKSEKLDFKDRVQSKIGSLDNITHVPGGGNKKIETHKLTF

[3H]CNc1ccc(-c2ccc3cc(OCC(O)CF)ccc3n2)cc1 (stereo not shown) [^3H-THK5117, 1-Fluoro-3-((2-(4-([^3H]methylamino)phenyl)quinolin-6-yl)oxy)propan-2-ol]
Total Binding (tau [1]; AD1, Frontal cortex): 312 fmol/mg | Total Binding (tau [1]; AD1, Temporal cortex): 261 fmol/mg | extent of binding compared with ^3H-THK5351 (tau [2]): more extensive binding of ^3H-THK5117 than of ^3H-THK5351

CNc1ccc(-c2ccc3cc(OCC(O)CF)ccc3n2)cc1 (stereo not shown) [THK5117]
Ki ([3]; hippocampus homogenate): 286 nM and > 200 nM | Ki ([3]; putamen homogenate): 148 nM and ~150 nM | Ki (tau [4]): 20 nM | affinity between MAO-B and THK5117 (MAO-B): around 300 nM
